Assay results published in patent publication US20090068290A1, “BIFEPRUNOX DOSES FOR TREATING SCHIZOPHRENIA” (priority 2006, published 2009).

Assays:
[1] = tested on: adult subjects with schizophrenia; test: CGI Improvement score, Clinical Study Three; assay type: in vivo, human; details: 15 mg, LOCF
Procedure: CLINICAL STUDY THREE: Table 29 below presents frequencies for the seven categories of CGI Improvement ratings by visit using LOCF for the ITT population. Statistical differences among treatment groups regarding the mean CGI Improvement score were evaluated using a CMH test stratified by pooled center applied to the frequencies of the seven CGI Improvement categories with modified ridit scores. […] The treatment comparison of the 30 mg bifeprunox group versus placebo group was not notable (p=0.162). No notable differences were observed between the placebo group and either of the two bifeprunox dose groups at any other time point during the study (Week 1 through Week 4).

[2] = Clinical laboratory assessments (prolactin), Clinical Study Three; details: olanzapine 15 mg; 6 weeks
Source text: To assess the safety and tolerability of bifeprunox using physical examination, weight, waist circumference, vital signs (pulse rate and systolic/diastolic blood pressure [BP], and oral temperature), 12-lead electrocardiogram (ECG), clinical laboratory assessments (hematology, biochemistry including fasting insulin level, fasting glucose, fasting lipid profile, urinalysis, special laboratory assessments for prolactin, IGF-1, IGFBP-3, and thyroid function), need for anticholinergic treatment during double-blind treatment period, concomitant medication use, adverse event (AE) monitoring, and assessments of abnormal movement including the Simpson-Angus Scale (SAS), Barnes Akathisia Scale (BAS), and Abnormal Involuntary Movement Scale (AIMS).

[3] = tested on: adult subjects with schizophrenia; test: PANSS negative symptom subscale score, Clinical Study Three; assay type: in vivo, human; details: LOCF; for Change from Baseline in PANSS Negative Symptom Subscale Score, Mean (SD) / Change from Baseline in PANSS Negative Symptom Subscale Score, Median: Olanzapine 15 mg, ITT population
Source text: SECONDARY OBJECTIVES To assess the efficacy of bifeprunox in treating schizophrenia using the Positive Symptom sub-scale score of the PANSS, the Negative Symptom sub-scale score of the PANSS, the General Psychopathology sub-scale of the PANSS, Brief Psychiatric Rating Scale (BPRS) total score derived from the PANSS, BPRS psychosis score derived from the PANSS, the Clinical Global Impression Severity of Illness score (CGI-S), the Clinical Global Impression Improvement score (CGI-I), CGI-I responder rate, PANSS responder rate based on the PANSS total score, Calgary Depression Scale for Schizophrenia (CDSS), and Subject Satisfaction rating.
There were four treatment arms in this study, approximately 144 subjects per arm. […] After completing the Single-Blind Placebo Lead-in Period of at least three days, bifeprunox-treated subjects were titrated from 0.25 mg up to 20 mg/day or 30 mg/day according to a standardized titration scheme over a seven- or eight-day period, respectively. When the assigned dose was reached, subjects were maintained at that dose for the remainder of the six week treatment period. […] Subjects were hospitalized (if not already inpatients) after eligibility for study entry was verified, starting from the Screening Visit until at least 10 days after Baseline. Subjects could be hospitalized longer than 10 days if considered medically necessary by the Investigator. Rating scale assessments for efficacy and abnormal movement disorders were done weekly except for Week 5. […] Subject satisfaction with study medication was assessed at Week 6.

[4] = tested on: adult subjects with schizophrenia; test: PANSS responder rate, Clinical Study Two; assay type: in vivo, human; details: risperidone 6 mg
Procedure: Notable differences were also observed between the 30 mg bifeprunox group and placebo for the change from baseline to endpoint in PANSS general psychopathology subscale score, BPRS total score, BPRS psychosis cluster score, PANSS responder rate, and CGI-I responder rate. […] A CGI-I responder refers to a subject who was categorized as “very much improved” or “much improved” in the CGI Global Improvement scale at endpoint. […]
Subjects who completed this study had the option to continue in the long-term. […] Risperidone-treated subjects were titrated from 2 mg to 6 mg daily over a three-day period and were subsequently maintained at 6 mg/day for the remainder of the treatment period. […] Blood samples were also obtained at Screening/Baseline, Week 3, and Week 6 for clinical laboratory assessments. […]

[5] = tested on: adult subjects with schizophrenia; test: PANSS total score, Clinical Study One (6-week, risperidone-referenced); assay type: in vivo, human; details: for Change from Baseline in PANSS Total Score, Median / Change from Baseline in PANSS Total Score, Mean (S.D.): Risperidone 6 mg, ITT
Procedure: There were five treatment groups in this study. […] Study medication was administered once daily. After Baseline measurements were performed, the titration phase was begun. Bifeprunox treated subjects were titrated up to 5 mg, 10 mg or 20 mg according to a standardized titration schedule (Day 1: 0.125 mg, Day 2: 0.25 mg, Day 3: 0.5 mg, Day 4: 1.0 mg, Day 5: 2.0 mg, Day 6: 5.0 mg, Day 7: 10.0 mg, Day 8: 20 mg). When the assigned dose was reached, subjects were maintained at that dose for the remainder of the six-week treatment period.
Test Product. Dose and Mode of Administration: Bifeprunox tablets, total daily dose 0.125 mg to 20 mg administered orally using a once daily dosing regimen.
The change in the Positive and Negative Symptom Scale (PANSS) total score, from baseline to endpoint, was the primary outcome measure. Secondary efficacy measures included: PANSS positive, PANSS negative, PANSS general psychopathology (GPP) score, PANSS-derived Brief Psychiatric Rating Scale (BPRS) score, Clinical Global Impressions-Severity of Illness (CGI-S), CGI-Improvement (CGI-I) scores, and responder rates. Safety and tolerability evaluations included extrapyramidal symptoms (EPS), weight gain, lipid profile, and serum prolactin.

SMILES: Cc1cc2c(s1)Nc1ccccc1N=C2N1CCN(C)CC1 [Olanzapine, olanzapine, reference compound]
- CGI Improvement Minimally Improved, % ([1]; Week 2): (45%)
- CGI Improvement Minimally Worse, % ([1]; Week 2): (6%)
- CGI Improvement Much Improved, % ([1]; Week 2): (27%)
- CGI Improvement Much Worse, % ([1]; Week 2): (<1%)
- CGI Improvement No Change, % ([1]; Week 2): (18%)
- CGI Improvement Very Much Improved, % ([1]; Week 2): (4%)
- CGI Improvement Minimally Improved, % ([1]; Week 4): (29%)
- CGI Improvement Minimally Worse, % ([1]; Week 4): (7%)
- CGI Improvement Much Improved, % ([1]; Week 4): (36%)
- CGI Improvement Much Worse, % ([1]; Week 4): (3%)
- CGI Improvement No Change, % ([1]; Week 4): (17%)
- CGI Improvement Very Much Improved, % ([1]; Week 4): (7%)
- CGI Improvement Minimally Improved, % ([1]; Week 6/Endpoint): (29%)
- CGI Improvement Minimally Worse, % ([1]; Week 6/Endpoint): (7%)
- CGI Improvement Much Improved, % ([1]; Week 6/Endpoint): (34%)
- CGI Improvement Much Worse, % ([1]; Week 6/Endpoint): (3%)
- CGI Improvement No Change, % ([1]; Week 6/Endpoint): (14%)
- CGI Improvement Very Much Improved, % ([1]; Week 6/Endpoint): (12%)
- prolactin [2]: increases in prolactin
- Change from Baseline in PANSS Negative Symptom Subscale Score, Mean (SD) ([3]; Week 1): −1.8 (3.1)
- Change from Baseline in PANSS Negative Symptom Subscale Score, Median ([3]; Week 1): −1
- Change from Baseline in PANSS Negative Symptom Subscale Score, Mean (SD) ([3]; Week 2): −3.0 (3.8)
- Change from Baseline in PANSS Negative Symptom Subscale Score, Median ([3]; Week 2): −3
- Change from Baseline in PANSS Negative Symptom Subscale Score, Mean (SD) ([3]; Week 3): −4.0 (4.8)
- Change from Baseline in PANSS Negative Symptom Subscale Score, Median ([3]; Week 3): −3
- Change from Baseline in PANSS Negative Symptom Subscale Score, Mean (SD) ([3]; Week 4): −4.0 (4.9)
- Change from Baseline in PANSS Negative Symptom Subscale Score, Median ([3]; Week 4): −4
- Change from Baseline in PANSS Negative Symptom Subscale Score, Mean (SD) ([3]; Week 6/Endpoint): −4.6 (5.2)
- Change from Baseline in PANSS Negative Symptom Subscale Score, Median ([3]; Week 6/Endpoint): −4
- mean change (SD) from Baseline to Endpoint in PANSS Negative Symptom subscale score ([3]; olanzapine 15 mg, ITT): −4.6 (5.2)

SMILES: Cc1nc2n(c(=O)c1CCN1CCC(c3noc4cc(F)ccc34)CC1)CCCC2 [Risperidone, risperidone, reference compound]
- PANSS 20% responder rate ([4]; Endpoint LOCF): 54%
- PANSS 30% responder rate ([4]; Endpoint LOCF): 31%
- PANSS Responder at Endpoint, 30% Definition Responder, No ([4]; LOCF, ITT): 104 (69%) n (%)
- PANSS Responder at Endpoint, 30% Definition Responder, Yes ([4]; LOCF, ITT): 47 (31%) n (%)
- PANSS Responder at Week 6/Endpoint, 20% Definition, No ([4]; LOCF, ITT): 69 (46%) n (%)
- PANSS Responder at Week 6/Endpoint, 20% Definition, Yes ([4]; LOCF, ITT): 78 (54%) n (%)
- Change from Baseline in PANSS Total Score, Median ([5]; Endpoint LOCF): −14
- Change from Baseline in PANSS Total Score, Mean (S.D.) ([5]; Week 1, LOCF): −8.2 (11.1)
- Change from Baseline in PANSS Total Score, Median ([5]; Week 1, LOCF): −7
- Change from Baseline in PANSS Total Score, Mean (S.D.) ([5]; Week 2, LOCF): −13.1 (13.9)
- Change from Baseline in PANSS Total Score, Median ([5]; Week 2, LOCF): −12
- Change from Baseline in PANSS Total Score, Mean (S.D.) ([5]; Week 3, LOCF): −15.3 (14.1)
- Change from Baseline in PANSS Total Score, Median ([5]; Week 3, LOCF): −13
- Change from Baseline in PANSS Total Score, Mean (S.D.) ([5]; Week 4, LOCF): −14.4 (14.5)
- Change from Baseline in PANSS Total Score, Median ([5]; Week 4, LOCF): −13
- all efficacy measures at endpoint compared to placebo ([5]; risperidone 6 mg (Example 4)): statistically significant at endpoint compared to placebo for all efficacy measures
- separation of active reference from placebo ([5]; risperidone 6 mg, 6 weeks): showed clear separation from the placebo group
